What was measured:
PIM-1 = target: T1, PIM-1 (Homo sapiens, UniProt P11309); assay: Protein PIM kinase assay (ADP Hunter Plus); assay type: biochemical; conditions: 100 μM ATP, 100 μM PIMtide
T1 construct: made in house
Experimental: (§1) PIM kinase activities were measured by using the commercial ADP Hunter™ Plus assay (DiscoveRx Ref. #33-016), a homogeneous assay measuring ADP accumulation, as a universal product of kinase activity. PIM-1 and PIM-2 proteins were obtained by purification as it is described by Martinez-Gonzalez et. al. Eur. J. Med Chem. 2019, 168, 87-109 and PIM-3 was acquired from Millipore (Cat #14-738). The assay was done following general manufacturer recommendations and adapting protein and substrates concentrations to optimal conditions. Kinase buffer was 15 mM HEPES, pH 7.4, 20 mM NaCl, 1 mM EGTA, 0.02% Tween-20, 10 mM MgCl2 and 0.1 mg/mL LBGG (bovine y-globulin). All PIM kinases assays were done at 100 μM PIM tide (ARKRRRHPSGPPTA), as peptide substrate, and 100 μM ATP. Protein concentration was 50, 350 and 200 pg/μl for PIM-1, 2 and 3, respectively. In order to calculate the IC50 of described compounds, serial 1:3 dilutions were prepared and the reaction started by addition of ATP. Incubation was done for 1 h at 25° C. Reagents A and B (DiscoveRx) were sequentially added to the wells and plates were incubated for 30 min at 37° C. Fluorescence counts were read in a Victor instrument (Perkin Elmer) with the recommended settings (544 and 580 nm as excitation and emission wavelengths, respectively). Values were plot against inhibitor concentration and fit to a sigmoid dose-response curve using Activity Base software from IDBS.

PIM-2 = target: T2, PIM-2 (Homo sapiens, UniProt Q9P1W9); assay: Protein PIM kinase assay (ADP Hunter Plus); assay type: biochemical; conditions: 100 μM ATP, 100 μM PIMtide
T2 construct: made in house
Experimental: as §1

PIM-3 = target: T3, PIM-3 (Homo sapiens, UniProt Q86V86); assay: Protein PIM kinase assay (ADP Hunter Plus); assay type: biochemical; conditions: 100 μM ATP, 100 μM PIMtide
T3 construct: purchased Millipore 14-738
Experimental: as §1

[1] = tested on: BAD S112 phosphorylation in H1299 cells overexpressing PIM-1 (H1299Pim1); assay: BAD S112 phosphorylation inhibition assay (in Cell ELISA); assay type: cell-based; conditions: Homo sapiens, NCI-H1299, 4 hours, medium without FBS, read-out: BAD PH 1299PIM 1 ELIWO
Experimental: The efficacy of the compounds of the invention on the inhibition of BAD phosphorylation was measured by an in Cell ELISA.
Materials: H1299 cells overexpressing PIM-1 (H1299Pim1). DMSO Plates: 96-well-Polystyrene, Untreated, Round-Bottom plates from Costar (Cat #3797). Cell Plates: 96-Flat bottom biocoated with Poly-D-Lysin plates with lid from Becton Dickinson (Cat #354651). Cell Culture Medium: DMEM high glucose, 10% Fetal Bovine Serum, 2 mM L-Glutamine, P/S. Antibodies: phospho BAD S112 antibody from Cell Signaling (cat. #9291S), anti-rabbit conjugated with peroxidase from Amersham (cat. #3619). Reagent: SuperSignal ELISA femto from Pierce (cat. #1001110).
Procedure: Cells were seeded in 15000 cells per 200 μl per well into 96-well plates and incubated for 16 h at 37° C., 5% CO2. On day two, nine serial 1:2 compound dilutions were made in DMSO in a 96-well plate. The compounds were added to duplicate wells in 96-well cell plates using a FX BECKMAN robot (Beckman Coulter) and were incubated at 37° C. under CO2 atmosphere in medium without fetal bovine serum (FBS). After 4 hours, relative levels of BAD S112 phosphorylation were measured in Cell ELISA using SuperSignal ELISA Femto substrate (Pierce) and read on VICTOR (Perkin Elmer). EC50 values were calculated using ActivityBase from IDBS.

DU145 = assay: Combination antiproliferation with Example 1; assay type: cell-based; set-up: key to Synergy: ++++ indicates a very strong synergistic effect; +++ a strong synergistic effect; ++ a synergistic effect; conditions: agent in combination with Example 1, DU145, Prostate Cancer
Experimental: (§2) The cells were harvested just before reaching confluency, counted with a haemocytometer and diluted with media. Cells were then seeded in 96-well microtiter plates at a density of 4,000 cells/well. […] Compounds were weighed out and diluted with DMSO to a final concentration of 10 mM. From here a “mother plate” with serial dilutions was prepared at 200× the final concentration in the culture. The final concentration of DMSO in the tissue culture media should not exceed 0.5%. The appropriate volume of the compound solution (2 μl) was added automatically (Beckman FX 96 tip) to 0.2 ml media to make it up to the final concentration for each drug. Each concentration was assayed in duplicate. Cells were exposed to the compounds for 72 h and then processed for CellTiter-Glo® Luminescent Cell Viability Assay (Promega) read out according to manufacturer's Instruction and read on EnVision (Perkin Elmer). GI50 values were calculated using ActivityBase from IDBS. […] A combination index score was calculated by the Chou and Talalay method (CalcuSyn software, Biosoft). The combination partner compounds were as follows: • the PI3K inhibitor pictisilib (GDC-0941); • the MEK inhibitor merdametinib (PD-0325901); and the EGFR and ErbB2 inhibitor lapatinib

A549 = assay: Combination antiproliferation with Example 1; assay type: cell-based; set-up: key to Synergy: ++++ indicates a very strong synergistic effect; +++ a strong synergistic effect; ++ a synergistic effect; conditions: agent in combination with Example 1, A549, Lung Cancer
Experimental: (§3) The cells were harvested just before reaching confluency, counted with a haemocytometer and diluted with media. Cells were then seeded in 96-well microtiter plates at a density of 4,000 cells/well. Cells were incubated for 24 hours before adding the compounds.
(§4) Compounds were weighed out and diluted with DMSO to a final concentration of 10 mM. From here a “mother plate” with serial dilutions was prepared at 200× the final concentration in the culture. The final concentration of DMSO in the tissue culture media should not exceed 0.5%. The appropriate volume of the compound solution (2 μl) was added automatically (Beckman FX 96 tip) to 0.2 ml media to make it up to the final concentration for each drug.
(§5) Each concentration was assayed in duplicate. Cells were exposed to the compounds for 72 h and then processed for CellTiter-Glo® Luminescent Cell Viability Assay (Promega) read out according to manufacturer's Instruction and read on EnVision (Perkin Elmer). GI50 values were calculated using ActivityBase from IDBS.
(§6) A combination index score was calculated by the Chou and Talalay method (CalcuSyn software, Biosoft).

HCT116 = assay: Combination antiproliferation with Example 1; assay type: cell-based; set-up: key to Synergy: ++++ indicates a very strong synergistic effect; +++ a strong synergistic effect; ++ a synergistic effect; conditions: agent in combination with Example 1, HCT116, Colon Cancer
Experimental: as §3, §4, §5, §6

Jeko-1 = assay: Combination antiproliferation with Example 1; assay type: cell-based; set-up: key to Synergy: ++++ indicates a very strong synergistic effect; +++ a strong synergistic effect; ++ a synergistic effect; conditions: agent in combination with Example 1, Jeko-1, Mantle Cell Lymphoma
Experimental: as §3, §4, §5, §6

T47D = assay: Combination antiproliferation with Example 1; assay type: cell-based; set-up: key to Synergy: ++++ indicates a very strong synergistic effect; +++ a strong synergistic effect; ++ a synergistic effect; conditions: agent in combination with Example 1, T47D, Breast Cancer
Experimental: as §3, §4, §5, §6

HT29 = assay: Combination antiproliferation with Example 1; assay type: cell-based; set-up: key to Synergy: ++++ indicates a very strong synergistic effect; +++ a strong synergistic effect; ++ a synergistic effect; conditions: agent in combination with Example 1, HT29, Colon Cancer
Experimental: as §2

SKMEL19 = assay: Combination antiproliferation with Example 1; assay type: cell-based; set-up: key to Synergy: ++++ indicates a very strong synergistic effect; +++ a strong synergistic effect; ++ a synergistic effect; conditions: agent in combination with Example 1, SKMEL19, Melanoma
Experimental: as §2

U87MG = assay: Combination antiproliferation with Example 1; assay type: cell-based; set-up: key to Synergy: ++++ indicates a very strong synergistic effect; +++ a strong synergistic effect; ++ a synergistic effect; conditions: agent in combination with Example 1, U87MG, Glioblastoma
Experimental: as §3, §4, §5, §6

BT-474 = assay: In vitro potency against breast cancer cell lines (CellTiter Glo); assay type: cell-based; conditions: Homo sapiens, BT-474, 72 h; read-out: absolute IC50 BT-474
Experimental: (§7) To prepare the complete medium FBS and appropriate additives were added according to the information sheet provided by the vendor and mixed gently. The cell name and complete medium and passage number marked on the flask were checked, and the culture medium removed and discarded using a vacuum pump. […] 3.0 ml of Trypsin-EDTA solution was added to the flask and the cells observed under an inverted microscope until cell layer is dispersed. 8.0 ml of complete growth medium was added and the cells aspirated by gently pipetting. The cell suspension was transferred to a centrifuge tube and centrifuged at 800-1000 rpm for 3-5 minutes. The supernatant was discarded using a vacuum pump, and an appropriate volume of complete medium added. The cell pellet was suspended by gently pipetting, and the cell numbers counted with Vi-cell XR and the cells adjusted to appropriate density. 100 μL of cell suspension to 96-well opaque-walled clear bottom plates was added according to the planned plate layout and the plates placed in the CO2 incubator overnight.
(§8) c. […] Meanwhile the day 0 plate was measured by Cell TiterGlo as listed below.
(§9) d. Cells were incubated with the compounds for 72 h at 5% CO2, 37° C.
(§10) The CellTiter-Glo buffer was thawed and equilibrated to room temperature prior to use. The lyophilized CellTiter-Glo substrate was equilibrated to room temperature prior to use. The appropriate volume of CellTiter-Glo buffer was transferred into the amber bottle containing CellTiter-Glo substrate to reconstitute the lyophilized enzyme/substrate mixture, thereby forming the CellTiter-Glo reagent. Mixing was carried out by gently vortexing, swirling or by inverting the contents to obtain a homogeneous solution, the CellTiter-Glo substrate going into solution easily in less than one minute.
(§11) The plate and its contents were equilibrated to room temperature for approximately 30 minutes, after which 100 μL of CellTiter-Glo reagent was added to the assay plate by Multidrop Combi instrument and the contents mixed for 10 minutes on an orbital shaker to induce cell lysis. The plate was allowed to incubate at room temperature for 10 minutes to stabilize luminescent signal and the clear bottom pasted with white back seal and the luminescence recorded with Enspire with the settings: Luminescence, measurement time 0.1 ms.

HCC1143 = assay: as above; assay type: cell-based; conditions: Homo sapiens, HCC1143, 72 h; read-out: absolute IC50 HCC1143
Experimental: as §7, §8, §9, §10, §11

T-47D = assay: as above; assay type: cell-based; conditions: Homo sapiens, T47D, 72 h; read-out: absolute IC50 T-47D
Experimental: as §7, §8, §9, §10, §11

KG-1 = assay: In vitro potency against leukemia cell lines (CellTiter Glo); assay type: cell-based; conditions: Homo sapiens, 72 hours, read-out: absolute IC50 KG-1
Experimental: as §7, §8, §9, §11
(§12) In all cases, the incubation time was 72 hours and the cell lines were grown as a suspension. The seeding density was […] in a 96 well plate.

OCI-M1 = assay: as above; assay type: cell-based; conditions: 72 hours, read-out: absolute IC50 OCI-M1
Experimental: as §7, §8, §9, §11, §12

T2 sequence (Q9P1W9 whole entry): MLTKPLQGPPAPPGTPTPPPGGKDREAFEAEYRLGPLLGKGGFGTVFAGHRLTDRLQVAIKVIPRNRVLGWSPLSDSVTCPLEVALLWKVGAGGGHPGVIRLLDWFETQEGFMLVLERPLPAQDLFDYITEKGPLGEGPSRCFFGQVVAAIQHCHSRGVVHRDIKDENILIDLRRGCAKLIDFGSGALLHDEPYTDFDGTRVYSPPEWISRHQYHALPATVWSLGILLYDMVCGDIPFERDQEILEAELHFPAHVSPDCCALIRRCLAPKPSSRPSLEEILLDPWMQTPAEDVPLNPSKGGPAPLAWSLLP
T1 sequence (P11309 whole entry): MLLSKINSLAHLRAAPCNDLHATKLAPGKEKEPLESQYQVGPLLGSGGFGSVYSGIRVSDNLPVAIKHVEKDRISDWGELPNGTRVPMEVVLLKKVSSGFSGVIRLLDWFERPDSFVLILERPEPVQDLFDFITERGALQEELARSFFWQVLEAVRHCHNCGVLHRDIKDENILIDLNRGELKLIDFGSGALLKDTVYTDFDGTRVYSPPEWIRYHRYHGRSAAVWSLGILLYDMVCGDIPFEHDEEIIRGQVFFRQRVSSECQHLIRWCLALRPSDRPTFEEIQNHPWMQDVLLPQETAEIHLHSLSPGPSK

Row | IC50 (PIM-1) [nM] | IC50 (PIM-2) [nM] | IC50 (PIM-3) [nM] | EC50 [1] [nM] | Compound | C.I. (combination index) (DU145) | Synergy (DU145) | C.I. (combination index) (SKMEL19) | Synergy (SKMEL19) | other results
1 | < 1 | 1 to 5 | 1 to 5 | 7.11 | CN1CCOc2c1c(N[C@H]1CC[C@@](C)(O)CC1)nn1c(-c3ccc(F)c(C(F)(F)F)c3)nnc21 [Example 2, 4-[3-(4-Fluoro-3-trifluoromethyl-phenyl)-6-methyl-7,8-dihydro-6H-9-oxa-1,2,3a,4,6-pentaaza-cyclopenta[a]naphthalen-5-ylamino]-1-methyl-cyclohexanol] | – | – | – | – | –
2 | < 1 | 5 to 10 | 1 to 5 | 4.15 | CC1(O)CCC(Nc2nn3c(-c4cccc(OC(F)(F)F)c4)nnc3c3c2CCCO3)CC1 (centres unmarked) [Example 3, 1-Methyl-4-[3-(3-trifluoromethoxy-phenyl)-7,8-dihydro-6H-9-oxa-1,2,3a,4-tetraaza-cyclopenta[a]naphthalen-5-ylamino]-cyclohexanol] | – | – | – | – | –
3 | – | – | – | – | CS(=O)(=O)CCNCc1ccc(-c2ccc3ncnc(Nc4ccc(OCc5cccc(F)c5)c(Cl)c4)c3c2)o1 [Lapatinib, lapatinib] | 0.52 | ++ | – | – | C.I. (combination index) (A549): 0.47; Synergy (A549): ++; C.I. (combination index) (HCT116): 0.51; Synergy (HCT116): ++; C.I. (combination index) (Jeko-1): 0.70; Synergy (Jeko-1): ++; C.I. (combination index) (T47D): 0.27; Synergy (T47D): +++
4 | – | – | – | – | O=C(NOC[C@H](O)CO)c1ccc(F)c(F)c1Nc1ccc(I)cc1F [Merdametinib, merdametinib] | 0.55 | ++ | 0.038 | ++++ | C.I. (combination index) (HT29): 0.62; Synergy (HT29): ++
5 | – | – | – | – | CS(=O)(=O)N1CCN(Cc2cc3nc(-c4cccc5[nH]ncc45)nc(N4CCOCC4)c3s2)CC1 [Pictisilib, pictisilib] | 0.24 | +++ | 0.54 | ++ | C.I. (combination index) (U87MG): 0.46; Synergy (U87MG): ++
6 | – | – | – | – | CN[C@@H]1C[C@H]2O[C@@](C)([C@@H]1OC)n1c3ccccc3c3c4c(c5c6ccccc6n2c5c31)C(=O)NC4 [Staurosporine] | – | – | – | – | IC50 (BT-474): 76.6 nM; IC50 (HCC1143): 11 nM; IC50 (T-47D): 219 nM; IC50 (KG-1): 23.2 nM; IC50 (OCI-M1): 48.4 nM
